Results as given in article PMC6891325, “The Synthesis, Characterization, Cytotoxic Activity Assessment and Structure-Activity Relationship of 4-Aryl-6-(2,5-dichlorothiophen-3-yl)-2-methoxypyridine-3-carbonitriles” (Molecules, 2019).

Tests used:
DU145 = experiment: MTT cytotoxicity assay, DU145 prostate cancer cells; type: cell-based, human; conditions: for IC50: Homo sapiens, DU-145, DU145 prostate cancer cells, MTT; for SI (DU145): selectivity index relative to normal human fibroblasts HSF1184
Procedure: (§1) Three different cancer cell lines; namely, DU145 derived from prostate cancer cells (American Type Culture Collection No. HTB-81), HepG2 derived from human liver cancer cells (American Type Culture Collection No. HB-8065), MBA-MB-231 derived from breast cancer cells (American Type Culture Collection No. HTB-26) and normal human fibroblasts (HSF1184) were grown and cultivated according to our previously described method. Briefly, cells were seeded in Dulbecco′s modified Eagle’s media (DMEM) supplemented with 10% heat-inactivated fetal bovine serum (FBS), 100 IU/mL penicillin, […] and 2 mM glutamine. The cells were maintained in a humidified atmosphere with 5% CO2 at 37 °C for 8 days, with subsequent media renewal. Then, cells were plated in a 96-well flat bottom plate at a concentration of 10^4 cells/well in fresh complete growth medium for 24 h and maintained in 37 °C in a 5% CO2-humidified incubator.
(§2) Cells in 96-well flat bottom plates were first serum-starved for 4 h by replacing cultured media with fresh medium (without serum). All synthesized compounds were properly dissolved in dimethyl sulfoxide (DMSO) to produce a stock concentration of 0.1 M. Cells were incubated with a range of different concentrations of the compounds we were testing (0–1000 μM) to give a final volume of 300 µL per well. In comparison, cells were incubated either alone with DMSO (negative control) or with 5-fluorouracil as a positive control. DMSO was used as a vehicle for the dissolution of the tested compounds and its final concentration in cultured media was less than 0.1%. Triplicate wells were designed for each individual dose. The compounds we synthesized were evaluated for in-vitro cytotoxicity properties via the standard 3-(4,5-dimethythiazol-2-yl)-2,5-diphenyl tetrazolium bromide (MTT) assay accordingly to our previously-reported work. The normal human fibroblast line (HSF1184) was used as a standard reference for the measurement of selectivity indexes (SIs) relative to cancer cell lines. The IC50 values and SIs were calculated accordingly.

HepG2 = experiment: MTT cytotoxicity assay, HepG2 liver cancer cells; type: cell-based, human; conditions: for IC50: MTT; for SI (HepG2): selectivity index relative to normal human fibroblasts HSF1184
Procedure: as §1, §2

MDA-MB-231 = experiment: MTT cytotoxicity assay, MDA-MB-231 breast cancer cells; type: cell-based, human; conditions: for IC50: Homo sapiens, MDA-MB-231 breast cancer cells, MTT; for SI (MDA-MB-231): selectivity index relative to normal human fibroblasts HSF1184
Procedure: as §1, §2

HSF1184 = experiment: MTT cytotoxicity assay, normal human fibroblasts HSF1184; type: cell-based; conditions: for IC50: Fibroblast
Procedure: as §1, §2

[1] = test system: HepG2, DU145 and MBA-MB-231 cancer cell lines; experiment: MTT cytotoxicity, stated jointly for the three cancer cell lines; type: cell-based; conditions: Homo sapiens; summary statement for HepG2, DU145 and MBA-MB-231; read-out: IC50 against all three cancer cell lines
Procedure: as §1, §2

[2] = Homo sapiens, HepG2, HepG2 liver cancer cells

Row | SMILES | IC50 (DU145) [µM] | SI (DU145) (DU145) | IC50 (HepG2; [2]) [µM] | SI (HepG2) (HepG2) | IC50 (MDA-MB-231) [µM] | SI (MDA-MB-231) (MDA-MB-231) | IC50 (HSF1184) [µM] | IC50 [1] [µM] | melting point [°C] | IC50 (HepG2; HepG2 liver cancer cells) [µM] | IC50 Values HSF1184 (HSF1184)
1 | O=c1[nH]cc(F)c(=O)[nH]1 [5-fluorouracil, reference compound] | 1.92 ± 0.24 | 96.60 | 1.65 ± 0.09 | 112.41 | 2.21 ± 0.28 | 83.93 | 185.5 ± 0.48 |  |  |  | 
2 | COc1nc(-c2cc(Cl)sc2Cl)cc(-c2ccccc2)c1C#N [5a, 6-(2,5-dichlorothiophen-3-yl)-2-methoxy-4-phenylpyridine-3-carbonitrile] | > 100 |  | 49.6 ± 0.51 |  | 21.2 ± 0.37 |  | 82.39 ± 0.04 | > 100 |  |  | 
3 | COc1nc(-c2cc(Cl)sc2Cl)cc(-c2ccc(C)cc2)c1C#N [5b, 6-(2,5-dichlorothiophen-3-yl)-2-methoxy-4-p-tolylpyridine-3-carbonitrile] | > 100 |  | 9.48 ± 0.63 |  | > 100 |  | 114.5 ± 0.38 | > 100 |  |  | 
4 | COc1nc(-c2cc(Cl)sc2Cl)cc(-c2ccc(Cl)cc2)c1C#N [5c, 4-(4-chlorophenyl)-6-(2,5-dichlorothiophen-3-yl)-2-methoxypyridine-3-carbonitrile] | 42.36 ± 0.21 | 2.18 | > 100 |  | 28.3 ± 0.42 | 3.26 | 92.38 ± 0.38 | > 100 | 195 to 196 |  | 
5 | COc1nc(-c2cc(Cl)sc2Cl)cc(-c2ccc(Br)cc2)c1C#N [5d, 4-(4-bromophenyl)-6-(2,5-dichlorothiophen-3-yl)-2-methoxypyridine-3-carbonitrile] | 3.63 ± 0.17 | 116.65 | 1.53 | 261.39 | 2.59 ± 0.04 | 163.49 | 423.4 ± 0.49 | 1 to 5 | 214 to 215 | 1.62 ± 0.15 | high
6 | COc1cccc(-c2cc(-c3cc(Cl)sc3Cl)nc(OC)c2C#N)c1 [5f, 6-(2,5-dichlorothiophen-3-yl)-2-methoxy-4-(3-methoxyphenyl)pyridine-3-carbonitrile] | 27.4 ± 0.63 | 3.48 | 18.3 ± 0.31 | 5.21 | 43.49 ± 0.06 | 2.20 | 95.49 ± 0.29 |  | 179 to 180 |  | 
7 | COc1nc(-c2cc(Cl)sc2Cl)cc(-c2cccc([N+](=O)[O-])c2)c1C#N [5g, 6-(2,5-dichlorothiophen-3-yl)-2-methoxy-4-(3-nitrophenyl)pyridine-3-carbonitrile] | 4.97 ± 0.35 |  | 2.11 ± 0.26 |  | 1.93 ± 0.03 |  | 135.6 ± 0.55 | 1 to 5 |  |  | high
8 | COc1nc(-c2cc(Cl)sc2Cl)cc(-c2ccc([N+](=O)[O-])cc2)c1C#N [5h, 6-(2,5-dichlorothiophen-3-yl)-2-methoxy-4-(4-nitrophenyl)pyridine-3-carbonitrile] | 1.77 ± 0.38 | 105.93 | 1.53 ± 0.38 | 122.54 | 2.14 ± 0.06 | 87.61 | 187.49 ± 0.14 | 1 to 5 | 204 to 205 |  | high
9 | COc1ccc(-c2cc(-c3cc(Cl)sc3Cl)nc(OC)c2C#N)cc1Br [5i, 4-(3-bromo-4-methoxyphenyl)-6-(2,5-dichlorothiophen-3-yl)-2-methoxypyridine-3-carbonitrile] | 1.82 ± 0.21 |  | 1.53 |  | 1.38 ± 0.03 |  | 234.5 ± 0.27 | 1 to 5 |  | 1.72 ± 0.42 | high
10 | COc1cc(-c2ccccc2)cc(-c2cc(Cl)sc2Cl)n1 [6a, 2-(2,5-dichlorothiophen-3-yl)-6-methoxy-4-phenylpyridine] | 53.49 ± 0.02 | 1.67 | 32.31 ± 0.23 | 2.77 | 15.3 ± 0.41 | 5.82 | 89.34 ± 0.55 |  | 127 to 128 |  | 
11 | COc1cc(-c2ccc(C)cc2)cc(-c2cc(Cl)sc2Cl)n1 [6b, 2-(2,5-dichlorothiophen-3-yl)-6-methoxy-4-p-tolylpyridine] | 64.59 ± 0.08 | 1.59 | 39.5 ± 0.58 | 2.59 | 52.39 ± 0.31 | 1.95 | 102.4 ± 0.3 |  | 150 to 151 |  | 
12 | COc1cc(-c2ccc(Cl)cc2)cc(-c2cc(Cl)sc2Cl)n1 [6c, 4-(4-chlorophenyl)-2-(2,5-dichlorothiophen-3-yl)-6-methoxypyridine] | 21.65 ± 0.12 |  | 11.3 ± 0.22 |  |  |  | 112.4 ± 0.47 |  |  |  | 
13 | COc1cc(-c2ccc(Br)cc2)cc(-c2cc(Cl)sc2Cl)n1 [6d, 4-(4-bromophenyl)-2-(2,5-dichlorothiophen-3-yl)-6-methoxypyridine] | 29.4 ± 0.88 | 3.14 | 64.59 ± 0.33 | 1.43 | 15.4 ± 0.48 | 6.00 | 92.55 ± 0.42 |  | 148 to 149 |  | 
14 | COc1cc(-c2ccccc2OC)cc(-c2cc(Cl)sc2Cl)n1 [6e, 2-(2,5-dichlorothiophen-3-yl)-6-methoxy-4-(2-methoxyphenyl)pyridine] |  |  |  |  |  |  |  |  | 135 to 136 |  | 
15 | COc1cccc(-c2cc(OC)nc(-c3cc(Cl)sc3Cl)c2)c1 [6f, 2-(2,5-dichlorothiophen-3-yl)-6-methoxy-4-(3-methoxyphenyl)pyridine] | 18.45 ± 0.02 | 5.68 | 38.5 ± 0.62 | 2.73 | 64.39 ± 0.28 | 1.63 | 104.8 ± 0.71 |  | 156 to 157 |  | 
16 | COc1cc(-c2cccc([N+](=O)[O-])c2)cc(-c2cc(Cl)sc2Cl)n1 [6g, 2-(2,5-dichlorothiophen-3-yl)-6-methoxy-4-(3-nitrophenyl)pyridine] | 25.4 ± 0.38 | 3.33 | 39.43 ± 0.09 | 2.14 | 18.3 ± 0.34 | 4.61 | 84.56 ± 0.4 |  | 182 to 183 |  | 
